Patent US20250152584A1, “NLRP3 INFLAMMASOME INHIBITOR AND USES THEREOF” (TransThera Sciences (Nanjing), Inc., priority 2022, published 2025)

Assays:
[1] = Pharmacokinetic study in SD male rats; format: in vivo; conditions: rat, plasma; for clearance: read-out: Cl—obs iv (clearance rate) (converted); for Vd: read-out: Vss iv (volume of distribution); for bioavailability: iv 1.0 mg/kg / po 5.0 mg/kg, read-out: F % (absolute bioavailability); for Tmax: median, read-out: Tmax po (peak time of plasma concentration); for Cmax: read-out: Cmax po (peak concentration)
Procedure: Experimental Example 3: Pharmacokinetic Study of Compounds in SD Male Rats
Compound 54, Compound 55, Compound 174, Compound 173, and Compound 264 were prepared into solutions with a mixed solvent formulated from 5% dimethyl sulfoxide, 20% (30% solutol) and 75% normal saline, respectively; the solution of each compound was administered to SD male rats by gavage at a dose of 5.0 mg/kg; and the time points for blood collection were: 15 min, 30 min, 1 h, 2 h, 4 h, 6 h, 8 h, 10 h and 24 h. The solution of the compound was administered to male SD rats by intravenous bolus at a dose of 1.0 mg/kg, and the time points for blood collection were as follows: 5 min, 15 min, 30 min, 1 h, 2 h, 4 h, 6 h, 8 h, 10 h, and 24 h.
On the day before administration, the jugular vein of each animal was cannulated; and after administration, about 300 μL of blood was collected through the jugular vein, and then placed in an anticoagulant tube containing EDTA-K2. Blood samples were centrifuged at 12,000 rpm for 10 min at 4° C. to obtain plasma samples, and plasma was prepared within 30 min after blood collection. The plasma was stored in a −80° C. freezer before testing.
• 1. The samples were taken from the −80° C. freezer, thawed naturally at room temperature, and then vortexed for 5 min. • 2. 30 μL of a plasma sample was precisely pipetted into a 1.5 mL centrifuge tube. • 3. 750 μL of an internal standard working solution (the acetonitrile solution of tolbutamide) at a concentration of […] was added and mixed well. • 4. After vortexing for 5 min, the mixture was centrifuged at 12,000 rpm for 5 min. • 5. 50 μL of the supernatant was accurately pipetted into a 96-well plate preloaded with water at 150 μL/well. • 6. Vortexing was performed for 5 min for sufficient mixing, and LC-MS/MS analysis was then conducted.
(§1) The results of the concentrations of the compounds under test were output using Analyst 1.6.3 of AB. Parameters such as mean, standard deviation, coefficient of variation was calculated by Microsoft Excel (parameters directly output by Analyst 1.6.3 needed no calculation), and PK parameters were calculated by WinNonlin Phenoix 8.2 software NCA (Tmax as the median).

[2] = Pharmacokinetic study in C57BL/6J mice; format: in vivo; conditions: mouse, plasma, C57BL/6J female mice; for Tmax: median, read-out: Tmax po (peak time of plasma concentration); for Cmax: read-out: Cmax po (peak concentration); for clearance: read-out: Cl—obs iv (clearance rate) (converted); for Vd: read-out: Vss iv (volume of distribution); for bioavailability: iv 5 mg/kg / po 10 mg/kg, read-out: F % (absolute bioavailability)
Procedure: Experimental Example 2: Pharmacokinetic Study of Compounds in C57BL/6J Mice
Compound 100, Compound 54, Compound 174, Compound 179, and Compound 253 were prepared into solutions with a mixed solvent formulated from 5% dimethyl sulfoxide, 20% (30% solutol) and 75% normal saline, respectively; the solution of each compound was administered to C57BL/6J female mice by gavage at a dose of 10 mg/kg; and the time points for blood collection were: 15 min, 30 min, 1 h, 2 h, 4 h, 6 h, 8 h and 24 h. The solution of the compound was administered to C57BL/6J female mice by intravenous bolus at a dose of 5 mg/kg, and the time points for blood collection were as follows: 5 min, 15 min, 30 min, 1 h, 2 h, 4 h, 6 h, 8 h, and 24 h.
Compound 1 was prepared into a solution with a mixed solvent formulated from 5% DME, 20% (30% solutol) and 75% normal saline; the solution of this compound was administered to C57BL/6J female mice by gavage at a dose of 10 mg/kg, and the time points for blood collection were: 15 min, 30 min, 1 h, 2 h, 4 h, 6 h, 8 h, and 24 h. The solution of the compound was administered to C57BL/6J female mice by intravenous bolus at a dose of 5 mg/kg, and the time points for blood collection were as follows: 5 min, 15 min, 30 min, 1 h, 2 h, 4 h, 6 h, 8 h, and 24 h.
Compound 195 was prepared into a solution with a mixed solvent formulated from 5% dimethyl sulfoxide, 20% PEG400 and 75% normal saline; the solution of this compound was administered to C57BL/6J female mice by gavage at a dose of 10 mg/kg; and the time points for blood collection were 15 min, 30 min, 1 h, 2 h, 4 h, 6 h, 8 h, and 24 b. The solution of the compound was administered to C57BL/6J female mice by intravenous bolus at a dose of 5 mg/kg, and the time points for blood collection were as follows: 5 min, 15 min, 30 min, 1 h, 2 b, 4 h, 6 h, 8 h, and 24 h.
Approximately 100 μL of blood was collected through the retroorbital venous plexus, and was then placed in an anticoagulant tube containing EDTA-K2. Blood samples were centrifuged at 12,000 rpm for 10 min at 4° C. to obtain plasma samples, and plasma was prepared within 30 min after blood collection. The plasma was stored in a −80° C. freezer before testing.
• 1. The samples were taken from the −80° C. freezer, thawed naturally at room temperature, and then vortexed for 5 min • 2. 10 μL of a plasma sample was precisely pipetted from different individuals into a 1.5 mL centrifuge tube. • 3. 300 μL of an internal standard working solution (the acetonitrile solution of tolbutamide) at a concentration of […] was added and mixed well. • 4. After vortexing for 5 min, the mixture was centrifuged at 12,000 rpm for 5 min. • 5. 50 μL of the supernatant was accurately pipetted into a 96-well plate preloaded with water at 150 μL/well. • 6. Vortexing was performed for 5 min for sufficient mixing, and LC-MS/MS analysis was then conducted.
as §1

[3] = intravenous bolus 1.0 mg/kg, read-out: AUClast iv (area under the drug-time curve for 0-24 h)
[4] = intravenous bolus 1.0 mg/kg, read-out: tz1/2 iv (terminal elimination half-life) (converted)
[5] = po, gavage 5.0 mg/kg, read-out: AUClast po (area under the drug-time curve for 0-24 h)
[6] = po, gavage 5.0 mg/kg, read-out: tz1/2 po (terminal elimination half-life) (converted)
[7] = po, gavage 10 mg/kg, read-out: AUClast po (area under the drug-time curve for 0-24 h)
[8] = po, gavage 10 mg/kg, read-out: tz1/2 po (terminal elimination half-life) (converted)
[9] = intravenous bolus 5 mg/kg, read-out: AUClast iv (area under the drug-time curve for 0-24 h)
[10] = intravenous bolus 5 mg/kg, read-out: tz1/2 iv (terminal elimination half-life) (converted)

| SMILES | AUC(0-t) [1, 3] [ng·h/mL] | clearance ([1]; intravenous bolus 1.0 mg/kg) [mL/min/kg] | Vd ([1]; intravenous bolus 1.0 mg/kg) [L/kg] | half-life [1, 4] [h] | bioavailability [1] [%] | Tmax ([1]; po, gavage 5.0 mg/kg) [h] | AUC(0-t) [1, 5] [ng·h/mL] | Cmax ([1]; po, gavage 5.0 mg/kg) [ng/mL] | half-life [1, 6] [h] | Tmax ([2]; po, gavage 10 mg/kg) [h] | AUC(0-t) [2, 7] [ng·h/mL] | Cmax ([2]; po, gavage 10 mg/kg) [ng/mL] | half-life [2, 8] [h] | AUC(0-t) [2, 9] [ng·h/mL] | clearance ([2]; intravenous bolus 5 mg/kg) [mL/min/kg] | Vd ([2]; intravenous bolus 5 mg/kg) [L/kg] | half-life [2, 10] [h] | bioavailability [2] [%] |
| --- | --- | --- | --- | --- | --- | --- | --- | --- | --- | --- | --- | --- | --- | --- | --- | --- | --- | --- |
| CC#Cc1ccc(-c2nnc(N[C@@H]3CCCN(C)C3)cc2C)c(O)c1 [Compound 174, (R)-2-(4-methyl-6-((1-methylpiperidin-3-yl)amino)pyridazin-3-yl)-5-(prop-1-yn-1-yl)phenol] | 813 | 18.2 | 4.82 | 3.6 | 97 | 2 | 4430 | 465 | 3.51 | 0.5 | 20100 | 3160 | 3.82 | 8610 | 9.57 | 2.64 | 3.95 | 116 |
| C#Cc1ccc(-c2nnc(N[C@@H]3CCCN(C)C3)cc2C)c(O)c1 [Compound 54, (R)-5-ethynyl-2-(4-methyl-6-((1-methylpiperidin-3-yl)amino)pyridazin-3-yl)phenol] | 749 | 20.2 | 5.01 | 2.97 | 93.1 | 1 | 3790 | 442 | 3.94 | 1 | 4130 | 820 | 3.04 | 2400 | 30.5 | 6.59 | 2.97 | 75.6 |
